Measurements published in PubChem BioAssay (NCI).
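1) Cells in 96-well plates. 2) Compound, 48 h, 5 concentrations. 3) Linear interpolation between surrounding doses. 4) Unreached endpoint = highest concentration. The concentration for 50% growth inhibition is given as GI50. TGI is the concentration that stops growth completely.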 Where a SMILES comes first, the peptide text is derived from it. The star is where a group is joined. Boc = CC(C)(C)OC(=O)*; OBn = c1ccc(CO*)cc1

How the values were obtained:
Assay in all cases: NCI tumour cell line growth inhibition, 48 h
786-0 renal = test system: 786-0 renal
A498 renal = test system: A498 renal
DU-145 prostate = test system: DU-145 prostate
HCT-116 colon = test system: HCT-116 colon
HCT-15 colon = test system: HCT-15 colon
HL-60(TB) leukemia = test system: HL-60(TB) leukemia
HOP-92 NSCLC = test system: HOP-92 NSCLC
RXF 393 renal = test system: RXF 393 renal
U251 CNS = test system: U251 CNS
SR leukemia = test system: SR leukemia

SMILES	TGI (786-0 renal) [µM]	TGI (A498 renal) [µM]	TGI (DU-145 prostate) [µM]	TGI (HCT-116 colon) [µM]	TGI (HCT-15 colon) [µM]	TGI (HL-60(TB) leukemia) [µM]	TGI (HOP-92 NSCLC) [µM]	TGI (RXF 393 renal) [µM]	TGI (U251 CNS) [µM]	TGI (SR leukemia) [µM]	GI50 (HL-60(TB) leukemia) [µM]
CCCNC(C#N)c1ccc(C(C#N)NCCC)cc1 (configuration not stated)	> 100	> 100	> 100	> 100	> 100	> 100	> 100	> 100	> 100	–	–
COP(=O)(OC)C(Cc1c[nH]c2ccccc12)NC(=O)OCc1ccccc1 (configuration not stated)	–	> 100	> 100	> 100	> 100	> 100	> 100	–	> 100	> 100	–
CCCCc1ccc(Nc2ncc3[nH]cnc3n2)cc1	54.3	45.4	30.6	34.5	38.5	> 100	49.7	49.7	60.4	–	–
Oc1[nH]c2ccccc2c1N=Nc1nc(-c2ccc(Cl)c(Cl)c2)cs1	> 100	–	> 100	> 100	> 100	0.718	> 100	–	> 100	–	–
C=C(C)C(=O)[C@@]12C(=O)[C@@H](C)CC[C@H]1[C@H](C)C[C@@H]2C=C(C)C	42.4	> 100	> 100	42.6	73.5	–	> 100	–	49.6	–	–
O=C1C(Br)=CC2(C=C1Br)CCNC1=C2C(=O)c2cccnc2C1=O	29.3	–	23.5	26.4	22.6	15.8	30.2	21.3	35.6	18.5	–
O=c1c(C=Nc2ccc([N+](=O)[O-])cc2)c(O)n(-c2ccccc2)c(=O)n1-c1ccccc1	> 100	> 100	–	> 100	> 100	–	> 100	> 100	> 100	> 100	–
Cc1cc(S(=O)(=O)O)c(NC(=O)C(=O)C2C=CCS2(=O)=O)cc1Cl (configuration not stated)	> 100	> 100	–	> 100	> 100	> 100	> 100	> 100	> 100	> 100	–
Nc1ccccc1N/C=C\C(=O)C(Cl)(Cl)Cl	28.3	38.9	75.1	29.7	46.1	85.3	47.8	45.2	56.9	–	–
C/C(=N\NC(N)=S)C(CN(CC(C)C)CC(C)C)C(=O)Nc1ccc(C)cc1C (configuration not stated)	> 100	> 100	–	> 100	> 100	> 100	> 100	> 100	> 100	> 100	–
COc1cc(/C=C2\N=C(c3ccccc3)N(c3nc4c(OC)ccc(OC)c4s3)C2=O)cc(OC)c1OC	> 100	> 100	> 100	> 100	> 100	> 100	> 100	> 100	> 100	–	–
O=C(OCc1ccccc1)C1(N2CN(C3(C(=O)OCc4ccccc4)CCCC3)CN(C3(C(=O)OCc4ccccc4)CCCC3)C2)CCCC1	> 10	–	> 10	> 10	> 10	> 10	> 10	> 10	> 10	> 10	–
CCCCCCCCCCCCCCCCCCNc1ccn(C2OC(COP(=O)(O)OCC3OC(n4cc(C)c(=O)[nH]c4=O)CC3N=[N+]=[N-])C(O)C2O)c(=O)n1 (configuration not stated)	> 100	–	> 100	> 100	36.1	–	> 100	–	36.2	80	–
COc1ccc2c(c1)n([O-])c(C#N)c(N1CCN(c3ccc([N+](=O)[O-])cc3)CC1)[n+]2=O	> 100	–	> 84.1	> 100	> 100	29.1	–	41.8	> 100	–	–
O=C(c1ccccc1)c1ccc2nc(-c3c(Cl)c(Cl)c(Cl)c(Cl)c3C(=O)N/N=C/c3ccccc3)[nH]c2c1	73.7	–	> 100	> 100	> 100	73	> 100	73.2	> 100	–	–
O=[N+]([O-])c1ccc(N=Nc2c(O)c(S(=O)(=O)O)cc3cc(S(=O)(=O)O)ccc23)cc1	> 100	> 100	> 100	> 100	> 100	> 100	> 100	–	> 100	> 100	–
CC(NC(=O)C(NC(=O)OC(C)(C)C)C(C)C)C(=O)N1CCCC1C(=O)NCC(=O)NC(C(=O)NCC(=O)OCc1ccccc1)C(C)C (configuration not stated) (Boc-VAPGVG-OBn; configuration not given here)	> 100	> 100	> 100	> 100	> 100	> 100	> 100	–	> 100	> 100	–
C=CCNC(=O)NC1=CSC2=NC(=O)C3(NN12)c1ccccc1-c1ccccc13	> 10	–	> 10	> 10	> 10	> 10	> 10	> 10	–	> 10	–
O=C1C=C(Br)c2c(Br)sc(Br)c21	> 19.6	–	29	30.4	20.5	29.2	7.64	25.7	41.3	> 100	–
CC(CO)C1C[C@H](O)[C@@]2(C)CC(=O)C=C(CO)[C@@H]2C1 (some centres not stated)	> 100	> 100	> 100	> 100	> 100	> 100	> 100	> 100	> 100	–	–
O=c1cc(N2CCCC2)[nH]c(=O)n1-c1cccc(C(F)(F)F)c1	> 100	> 100	> 100	> 100	> 100	> 100	> 100	> 100	> 100	–	–
CC(=O)O[C@]12CCCC1C1(O)C(O)CCCC12 (some centres not stated)	> 100	–	–	> 100	> 100	> 100	–	> 100	> 100	> 100	–
COC(=O)/C=C/c1cc(O)c2c(c1)[C@H](C(=O)OC)[C@@H](c1ccc(O)c(O)c1)O2	> 100	> 28	–	> 72	> 100	0.0801	> 94	–	> 100	–	0.0293
